Measured values: patent US8802635B2, “Antioxidant, anti-inflammatory, anti-radiation, metal chelating compounds and uses thereof” (Oneday—Biotech And Pharma Ltd., priority 2011, dated 2014)
Starred links: 1 amine or outer side, 2 acyl side, 3 side chain; linkers in the order of their positions; H or OH if unused. Non-standard residues stand in square brackets, D forms with d. γGlu = O=C(O)[C@H](CCC(=O)[*:2])N[*:1]

Legend:
[1] = tested on: JNK (c-Jun N-terminal kinases); experiment: Inhibition of oxidative stress (auranofin)-induced JNK phosphorylation in SH-SY5Y cells; format: cell-based, Human; conditions: auranofin 5 μM
Description: (§1) Human neuroblastoma SH-SY5Y cells were maintained in Dulbecco's modified Eagle's medium (DMEM, Invitrogen) supplemented with 10% fetal bovine serum (Invitrogen), 100 μg/ml streptomycin and 100 U/ml penicillin G (Gibco). Cells were plated at a density of 6.25×10^4/cm^2 and incubated for 24 hours, after which they were exposed to different treatments.
(§2) SH-SY5Y cells were plated on 96-well plates and treated with Auranofin (AuF) (5 μM) for 30 min. Then the cells were washed with PBS and treated with either one of the peptides at the indicated concentrations. Twenty-four hours later, the cells were fixed with glutaraldehyde in final concentration of 0.5% for 10 min. Cells were washed 3 times with DDW dried over night, and washed once with borate buffer (0.1M, pH 8.5). The fixed cells were stained with 200 μl of 1% methylene blue dissolved in borate buffer for 1 hour. After extensive washing and drying, the color was extracted with 200 μl of 0.1 M HCl for 1 h at 37° C. and absorbance was read in spectrophotometer at 630 nm.
(§3) Twenty to thirty micrograms of protein samples were loaded on 10-12% SDS-PAGE gels. The proteins were then transferred electrophoretically to nitrocellulose (Whatman, Germany). The blots were blocked by incubation for 1 h at room temperature (RT) in TBS-T (25 mM Tris-HCl pH 7.4, 0.9% NaCl and 0.02% Tween-20) with 4% Difco skim milk (BD, USA), and incubated over-night at 4° C. with the primary antibody: pERK1/2 (Thr 202/Tyr204), mouse mAb, (1:6,000); p-SAPK/JNK (Thr183/Tyr185), rabbit mAb; SAPK/JNK, mouse mAb; p-p38MAP Kinase (Thr180/Tyr182), rabbit mAb; cleaved caspase 3, rabbit mAb. All antibodies were from Cell Signaling Tech. USA, used at 1:1000. Purified b Catenin, mouse mAb, (1:10,000; BD Transduction Laboratories, USA) diluted in 5% BSA, 0.04% Azide in TBS-T. Proteins were detected with Anti-Mouse or Anti-Rabbit IgG-HRP linked antibody (1:10,000; Cell Signaling, Tech. USA).

[2] = tested on: p38 MAP Kinase; experiment: Inhibition of oxidative stress (auranofin)-induced p38 phosphorylation in SH-SY5Y cells; format: cell-based, Human; conditions: auranofin 5 μM
Description: as §1, §2, §3

[3] = tested on: HaCaT cells; experiment: Hydrogen peroxide-induced HaCaT keratinocyte cytotoxicity (MTT); format: cell-based; conditions: for protection of cell viability after hydrogen peroxide exposure (in words): 90 μM hydrogen peroxide 30 min, MTT after 72 hours
Description: All five peptides were examined in this Example, and their activity was compared to the known CB3 peptide. HaCaT cells were seeded in 96-well plate at a concentration of 10×10^4 cells/ml for 24 hours. Then cells were incubated with the peptides at the indicated concentrations for 2.5 hours followed by washing with PBS and incubation with 90 μM hydrogen peroxide (without peptide) for 30 minutes. Cells were washed with PBS and incubated with culture medium containing peptide for 72 hours. Cell viability was tested by MTT. The effect of the peptides on cell viability was performed similarly without hydrogen peroxide exposure.

[4] = tested on: malondialdehyde (MDA) in lung tissue; experiment: MDA (lipid peroxidation) in lung, zymosan-induced inflammation; format: in vivo, mice; conditions: i.p. 3x50 mg/kg before, 120 mg/kg 30 min before and 5 h after zymosan; 24 h; p<0.05
Description: Male BALB/c mice were randomly allocated into the following experimental groups (8 mice for each group):
The peptides were administered by an intraperitoneal (i.p.) route of administration as follows: • The first dose (50 mg per kg) was given 3 days before the zymosan injection. • The second dose (50 mg per kg) was given 2 days before the zymosan injection. • The third dose (50 mg per kg) was given 1 day before the zymosan injection. • The fourth dose (120 mg per kg) was given 30 minutes before the zymosan injection. • The fifth dose (120 mg per kg) was given 5 hours after the zymosan injection.
The peptides were formulated in D5W (5% dextrose in water, “D5W”). The vehicle control was D5W. At 24 hours after administration of zymosan, animals were euthanized and assessed for inflammation by an MDA (malondialdehyde) analysis of lung tissue. All the materials and drugs (apart from the peptides) were obtained from Sigma, Inc.
Malondialdehyde (MDA) formation was used to quantify lipid peroxidation, measured as thiobarbituric acid-reactive material. […] After cooling to room temperature, samples were cleared by centrifugation at 10,000 g for 10 min and absorbance was measured at 532 nm using 1,1,3,3-tetramethoxypropane as an external standard. The level of lipid peroxides was expressed as nM MDA/mg protein.

[5] = tested on: IkappaBalpha; experiment: Cytoplasmic stability of I-kappaBalpha in lung, zymosan-induced inflammation; format: in vivo, mice; conditions: lung tissue, 24 hours after zymosan
Description: Male BALB/c mice were randomly allocated into the following experimental groups:
The peptides were administered by an intraperitoneal (i.p.) route of administration as described in Example 3.
The peptides were formulated in D5W as described in Example 3. The vehicle control was D5W.
At 24 hours after administration of zymosan, animals were euthanized and assessed for inflammation by an NF-κB analysis of lung tissue.
Tissues were homogenized and nuclear extracts prepared via centrifugation. ELISA for IkappaBalpha was performed, using a series of standards in order to define absolute concentrations.

[6] = tested on: cellularity of the peritoneal exudates; experiment: Ovalbumin-induced hypersensitivity (allergic peritonitis): peritoneal cellularity; format: in vivo, mice; conditions: 125 mg/kg i.p. on days 13, 14, 15
Description: (§4) Male BALB/c mice (6-8 weeks old) were housed under specific pathogen-free conditions and maintained on a 12-hour light/dark cycle, with food and water ad libitum. All materials and drugs were obtained from Sigma, Inc.
(§5) Mice in Groups A, B, C, and E (n=10 per group) were sensitized with intraperitoneal (i.p.) 200 μl of sterile PBS containing 100 μg ovalbumin (OVA) and 1.6 mg alum on days 0 and 7, and challenged with intraperitoneal (i.p.) 200 μl of sterile PBS containing 10 μg ovalbumin (OVA) on day 14 in order to induce an experimental model of allergic peritonitis. Mice in Group F (n=10) were injected with intraperitoneal (i.p) 200 μl sterile PBS (“sham” group, no OVA and no Alum).
(§6) Mice in Groups A, B, and C, were treated with 150 μl of sterile PBS containing peptides DY-66, DY-65 and DY-70, respectively, at a dose of 125 mg/kg on days 13, 14, and 15 via an i.p. route of administration.
(§7) Mice in Groups E and F were treated with 150 μl of sterile PBS on days 13, 14, and 15 via an i.p. route of administration. On day 14 the test articles (or PBS vehicle) were injected 30 minutes before injecting the OVA.

[7] = tested on: anti-OVA serum IgE; experiment: Ovalbumin-induced hypersensitivity: serum anti-OVA IgE; format: in vivo, mice; conditions: 125 mg/kg i.p. on days 13, 14, 15; blood day 16
Description: as §4, §5, §6, §7
Blood taken on day 16 was tested for 1) serum anti-OVA IgE, 2) white blood cell count and differential (including absolute and percentage of eosinophils count). Serum was frozen at −80° C. for future optional blood tests.

[8] = tested on: HaCaT cells; experiment: UVB-induced cytotoxicity in HaCaT cells (MTT); format: cell-based; conditions: UVB 0.05 J/cm^2; MTT after 72 hours
Description: HaCaT cells were seeded in 96-wells plate (10×10^4/ml) and incubated in 37° C., 6% CO2 for 24 hours. Cells were incubated with the peptides at the indicated concentrations for 2.5 hours and washed (PBS). Then 100 μl PBS were added to each well followed by UVB irradiation (0.05 J/cm^2). Cells were washed with PBS and incubated with culture medium (DMEM, 100 μl) containing the peptides. MTT assay was carried out after 72 hours.

[9] = Metal chelation: copper binding by mass spectra (ESI); conditions: 0.83 mM peptide, 1.66 mM CuSO4, 1 hour room temperature
Description: (§8) All five peptides were examined for their ability to bind copper and ferric ions. 0.83 mM of each peptide were mixed with 1.66 mM of either FeCL3 or CuSO4. The mixtures were incubated for 1 hour at room temperature and further kept at ° 4 C until analysis. Samples were analyzed by mass spectra (ESI).

[10] = Metal chelation: ferric ion binding by mass spectra (ESI); conditions: 0.83 mM peptide, 1.66 mM FeCL3, 1 hour room temperature
Description: as §8

[11] = tested on: alanine aminotransferase (ALT) in plasma / liver necrosis; experiment: Concanavalin A-induced liver inflammation in C57BL/6 mice; format: in vivo; conditions: ConA dose 180 μg/mouse
Description: Six groups of C57BL/6 female mice (7-8 weeks old) containing 6 mice in each group were injected i.p. with different peptide on days −3, −2, −1 at a dose of 50 mg/kg or with PBS alone. On day zero all the mice were injected i.v. with 250 μg/mouse of Con A and 45 min. later they were injected i.p. with 150 mg/kg of each peptide or PBS.
Eight hours after Con A injection mice were bled into heparinized tubes (approx. 150 ul of blood from each mouse) and the levels of alanine aminotransferase (ALT) was measured in the plasma.
One day later the mice were sacrificed and their livers were placed in 4% formalin and sent for pathological examination.
Next, peptide DY-66 was examined and compared to N-acetylcysteine (NAC), CB3 and CB4. The compounds were tested according to the procedure described above. ConA dose was 180 μg/mouse.
FIG. 8 presents the change in ALT levels (%) for each of the tested compounds compared to PBS treatment (i.e., the ratio between ALT levels in samples obtained from mice treated with a tested compound and ALT levels in samples obtained from PBS-treated mice)

[12] = tested on: carrageenan-induced hind paw swelling; experiment: Carrageenan-induced hind paw swelling; format: in vivo, mice; conditions: 150 mg/kg i.p. 30 min prior to carrageenan
Description: The above new five peptides were examined for anti-inflammatory activity, and their activity was compared to that of peptide CB3. Male ICR mice received an i.p. administration of each of the tested peptide (150 mg/kg) 30 min prior to the injection of carrageenan into the sub-plantar area of both of the animal's hind paws. Carrageenan was dissolved in water at concentration of 3 mg/ml and injected at a volume of 50 μl. Hind paw thickness was measured by Mitutoyo® micrometer before carrageenan injection and afterward at intervals of 1 hour between each measurement. Swelling was calculated as the difference between the thickness of the hind paw measured at each time interval and its size at time 0 (before carrageenan injection). n=6 foot pads (3 animals) for each group.

Molecule | IC50 [1] | IC50 [2] | protection of cell viability after hydrogen peroxide exposure (in words) [3] | ALT level compared to PBS-treated mice (in words) [11] | hind paw swelling compared to control (in words) [12] | also measured
N-acetyl-Cys-γGlu-Cys-Cys-NH2 (Ac-C[γGlu]CC-NH2; cysteine pairing not given here) [DY-71] | 82.3 µM | 46.9 µM | slightly elevated cell viability |  |  | 
N-acetyl-Cys-Met-Lys-Cys-NH2 (Ac-CMKC-NH2; cysteine pairing not given here) [DY-70] | 22.1 µM | 22.2 µM | fully protected the cells from hydrogen peroxide |  |  | effect on zymosan-induced elevation of MDA in lung tissue (in words) [4]: inhibited the elevation in MDA concentration; rank order of efficacy on cytoplasmic IkappaBalpha [5]: DY-70>DY-65>DY-66; effect on OVA-induced elevation of peritoneal exudate cellularity (in words) [6]: significantly reduced the elevation; rank order of reduction of peritoneal exudate cellularity [6]: DY-65>DY-70>DY-66; effect on OVA-induced elevation of anti-OVA serum IgE titer (in words) [7]: significantly reduced the elevation; rank order of reduction of anti-OVA serum IgE titer [7]: DY-65>DY-70>DY-66; protection against UVB-induced cytotoxicity (in words) [8]: protective effect at low concentrations; copper binding (in words) [9]: low degree; FeCl binding (in words) [10]: low degree
N-acetyl-Cys-Gly-Pro-Cys-NH2 (Ac-CGPC-NH2; cysteine pairing not given here) [CB4, reference compound] |  |  |  | highly increased ALT level |  | 
CC(=O)N[C@@H](CS)C(=O)O [NAC, N-acetylcysteine, reference compound] |  |  |  | did not induce a significant change in ALT level |  | 
N-acetyl-Cys-γGlu-Cys-NH2 (Ac-Cys-[γGlu]-Cys-NH2; cysteine pairing not given here) [DY-67] | 67.3 µM | 36.5 µM |  |  | Reduced swelling compared to control | increase in cell viability ([3]; concentrations of 1-10 μM): about 45%
N-acetyl-Cys-Pro-Cys-NH2 (Ac-Cys-Pro-Cys-NH2; cysteine pairing not given here) [CB3, reference compound] |  |  | slightly elevated cell viability | highly increased ALT level | did not show a significant reduction | 
